According to patent publication US12655171B2, “Compounds for activating invariant natural killer T-cells and methods of use in eliminating inflammatory senescent cells” (Deciduous Therapeutics, Inc., priority 2021, dated 2026):

What was measured:
primary human iNKT cells = assay: Cytokine secretion of primary human iNKT cells co-cultured with drug-loaded BWSTIM cells; assay type: cell-based; conditions: BWSTIM loaded with 10 μg/mL
Procedure: In order to determine the activation profile induced by the compounds described herein, primary human iNKT cells were co-cultured with drug-loaded BWSTIM cells.
Day 0: PBMCs were isolated from human blood using the STEMCELL TECHNOLOGIES™ SepMate™ PBMC isolation system. iNKT cells were then selected using the Miltenyi NKT magnetic cell separation kit.
Day 2: DCD molecules or α-GalCer were both dissolved in DMSO at a 5 mg/mL stock solution. BWSTIM cells were fixed with mitomycin C, then loaded with 10 μg/mL of DCD molecules or α-GalCer for 4 hours at 37° C. at a concentration of 20 k cells/well in 200 μL of media in a u-bottom 96 well dish. Cells were co-cultured with 80 k 6B11+ selected primary human iNKT cells.
D4: Media was collected. Cytokines were measured using the Satorious 4Plex kit on the iQue3 cytometer.
GVK molecules or α-GalCer were both dissolved in DMSO at a 5 mg/mL stock solution. BWSTIM cells were loaded with compounds for 4 hours at 37° C. at a concentration of 20 k cells/well in 200 μL of media in a u-bottom 96 well dish. Cells were co-cultured with 100 k 6B11+ selected primary human iNKT cells. Media was collected 2 days later. Cytokines were measured using the Satorious 4Plex kit on the iQue3 cytometer.

human iTCR = assay: In vitro activation of human iTCR through Jurkat reporter cell line (JiNKT, GFP under NFkB promoter) with drug-loaded BWSTIM cells; assay type: cell-based; conditions: for EC50 of the dose response based on percentage GFP+ cells, compared to α-GalCer: BWSTIM loaded 4 hours, co-culture with JiNKT 18 to 24 hours, FIG. 1
Procedure: In order to determine the human iTCR activation potential induced by the compounds described herein, a jurkat cell line (JiNKT) was transfected with the human iTCR, and GFP under the NFkB promoter (cell line licensed from the Medical University of Vienna). A BWS147 cell line (BWSTIM) was also transfected with CD80 and CD1d to act as the antigen-presenting cell.
(§1) DCD molecules or α-GalCer were both dissolved in DMSO at a 5 mg/mL stock solution. BWSTIM cells were loaded with DCD molecules or α-GalCer at varying concentrations for 4 hours at 37° C. at a concentration of 20 k cells/well in 200 μL of media in a u-bottom 96 well dish. BWSTIM cells were washed 2× with media, then incubated with JiNKT cells at a concentration of 80 k cells/well in a u-bottom 96 well dish. Cells were co-cultured for 18 to 24 hours. The percentage of cells expressing high levels of GFP was measured through flow cytometry (after gating out the mCD45+ BWSTIM cells).
A jurkat cell line (JiNKT) was transfected with the human iTCR, and GFP under the NFkB promoter. A BWS147 cell line (BWSTIM) was also transfected with CD80 and CD1d to act as the antigen-presenting cell. A mouse iNKT hybridoma cell line (DN3.2) was also used as the iNKT. […]
as §1, with “GVK” for “DCD”, “compounds” for “DCD molecules or α-GalCer at varying concentrations”, “for” for “for 18 to”, “cytometry. 1 μg/mL of molecule GVK1a, GVK1b, GVK1c, or GVK1f was incubated with BWSTIM+JiNKT, and compared to α-GalCer.” for “cytometry (after gating out the mCD45+ BWSTIM cells).”

serum IFNγ = assay: In vivo serum IFNγ (ELISA) in C57BL/6J mice; conditions: 2 μg I.P.; twenty hours post-injection; FIG. 4A
Procedure: In order to determine the expansion induced by the molecules described herein, molecules were injected into C57BL/6J mice. Serum IFNγ levels and the expansion of iNKT cells within splenocytes was measured 4 days post-IP injection.
Eight weeks old C57BL/6J mice were injected (I.P.) with 2 μg of α-GalCer or DCD molecules. Molecules were either dissolved in DMSO at a 5 mg/mL stock solution, or formulated into liposomes through thin-film rehydration, then extrusion through 200 nm filters. Liposome-based formulations were constructed using soy phosphatidylcholine, cholesterol, and DCD or α-GalCer in a 2:1:0.15 ratio. Twenty hours post-injection, blood was collected from the tail to measure the level of serum IFNγ using an ELISA kit from Biolegend. Four days post-injection, the mice were sacrificed and the spleenocytes were isolated. The percentage of iNKT cells within the spleens was measured using flow cytometry, selecting for live cells and mouse CD1d-α-GalCer tetramer+ cells.

SMILES | EC50 of the dose response based on percentage GFP+ cells, compared to α-GalCer (human iTCR) | further results
CCCCCCCCCCCCCC[C@@H](O)[C@@H](O)[C@H](COC1OC(CO)C(O)C(O)C1O)n1cc(CCCCCCN(CCCCCCC)CCCCCCC)nn1 (some centres unmarked) [DCD-104] | lower EC50s compared to α-GalCer | IFNγ secretion compared to the no-compound control (primary human iNKT cells; FIG. 3A): significantly higher levels; IL6 secretion compared to the no-compound control (primary human iNKT cells; FIG. 3B): significantly higher levels; TNFα secretion compared to the no-compound control (primary human iNKT cells; FIG. 3C): significantly higher levels
CCCCCCCCCCCCCC[C@@H](O)[C@@H](O)[C@H](COC1OC(CO)C(O)C(O)C1O)NC(=O)CCCCCCCCCCN1CCSCC1.Cl (some centres unmarked) [DCD-133] | lower EC50s compared to α-GalCer | –
CCCCCCCCCCCCCC[C@@H](O)[C@@H](O)[C@H](COC1OC(CO)C(O)C(O)C1O)NC(=O)CCCCCCCCCCCC12CC(F)(C1)C2 (some centres unmarked) [DCD-113] | lower EC50s compared to α-GalCer | –
CCCCCCCCCCCCCC[C@@H](O)[C@@H](O)[C@H](COC1OC(CO)C(O)C(O)C1O)NC(=O)CCCCCCCCCOC1CCS(=O)(=O)CC1 (some centres unmarked) [DCD-138] | lower EC50s compared to α-GalCer | –
CCCCCCCCCCCCCC[C@@H](O)[C@@H](O)[C@H](COC1OC(CO)C(O)C(O)C1O)NC(=O)CCCCCCCCCOC1CCOCC1 (some centres unmarked) [DCD-139] | lower EC50s compared to α-GalCer | –
CCCCCCCCCCCCCCCCC[Si](C)(C)CCCCCCCC(=O)N[C@@H](COC1OC(CO)C(O)C(O)C1O)[C@H](O)[C@H](O)CCCCCCCCCCCCCC (some centres unmarked) [DCD-157] | lower EC50s compared to α-GalCer | average serum IFNγ compared to α-GalCer (serum IFNγ): higher than the average serum IFNγ of C57BL/6J mice treated with α-GalCer
CCCCCCCCCCCCCC[C@@H](O)[C@@H](O)[C@H](COC1OC(CO)C(O)C(O)C1O)NC(=O)CCCCCCCCCCC1(C)COC1 (some centres unmarked) [DCD-119] | lower EC50s compared to α-GalCer | –
CCCCCCCCCCCCCC[C@@H](O)[C@@H](O)[C@H](COC1OC(CO)C(O)C(O)C1O)NC(=O)CCCCCCCOCCC1CCOCC1 (some centres unmarked) [DCD-140] | lower EC50s compared to α-GalCer | –
CCCCCCCCCCCCCC[C@@H](O)[C@@H](O)[C@H](COC1OC(CO)C(O)C(O)C1O)NC(=O)CCCCCCCCCCCCCCCCCCCCCC1COC1 (some centres unmarked) [DCD-150] | lower EC50s compared to α-GalCer | –
CCCCCCCCCCCCCC[C@@H](O)[C@@H](O)[C@H](COC1OC(CO)C(O)C(O)C1O)NC(=O)CCCCCCCCCCCCCCCCCCCCCCC1COC1 (some centres unmarked) [DCD-149] | lower EC50s compared to α-GalCer | –
CCCCCCCCCCCCCC[C@@H](O)[C@@H](O)[C@H](COC1OC(CO)C(O)C(O)C1O)NC(=O)CCCCCCCCCCC1CCN(C(=O)OC(C)(C)C)C1 (some centres unmarked) [DCD-128] | lower EC50s compared to α-GalCer | –
CCCCCCCCCCCCCC[C@@H](O)[C@@H](O)[C@H](COC1OC(CO)C(O)C(O)C1O)NC(=O)CCCCCCCCCCC1CCS(=O)(=O)CC1 (some centres unmarked) [DCD-127] | lower EC50s compared to α-GalCer | % GFP+ (human iTCR; ranking among tested compounds, at the lowest concentration): highest % GFP+ at the lowest concentration
CCCCCCCCCCCCCC[C@@H](O)[C@@H](O)[C@H](COC1OC(CO)C(O)C(O)C1O)NC(=O)CCCCCCOCCCC1CCOCC1 (some centres unmarked) [DCD-143] | lower EC50s compared to α-GalCer | –
CCCCCCCCCCCCCC[C@@H](O)[C@@H](O)[C@H](COC1OC(CO)C(O)C(O)C1O)NC(=O)CCCCCCCCCCC1CCOC1 (some centres unmarked) [DCD-121] | lower EC50s compared to α-GalCer | –
CCCCCCCCCCCCCC[C@@H](O)[C@@H](O)[C@H](COC1OC(CO)C(O)C(O)C1O)NC(=O)CCCCCCCCCCC1CN(C(=O)OC(C)(C)C)C1 (some centres unmarked) [DCD-125] | lower EC50s compared to α-GalCer | –
CCCCCCCCCCCCCC[C@@H](O)[C@@H](O)[C@H](COC1OC(CO)C(O)C(O)C1O)NC(=O)CCCCCCCCCCCCCCCCCCCCCC12CC(F)(C1)C2 (some centres unmarked) [DCD-151] | lower EC50s compared to α-GalCer | –
CCCCCCCCCCCCCC[C@@H](O)[C@@H](O)[C@H](COC1OC(CO)C(O)C(O)C1O)NC(=O)CCCCCCCCCCN1CCS(=O)(=O)CC1 (some centres unmarked) [DCD-136] | lower EC50s compared to α-GalCer | –
CCCCCCCCCCCCCC[C@@H](O)[C@@H](O)[C@H](COC1OC(CO)C(O)C(O)C1O)NC(=O)CCCCCCCCCCC1CCOCC1 (some centres unmarked) [DCD-122] | lower EC50s compared to α-GalCer | –
CCCCCCCCCCCCCC[C@@H](O)[C@@H](O)[C@H](COC1OC(CO)C(O)C(O)C1O)NC(=O)CCCCCCCCCCN1CCOCC1.Cl (some centres unmarked) [DCD-130] | lower EC50s compared to α-GalCer | –
CCCCCCCCCCCCCC[C@@H](O)[C@@H](O)[C@H](COC1OC(CO)C(O)C(O)C1O)NC(=O)CCCCCCCCCCCCCCCCCCCCCCC12CC(F)(C1)C2 (some centres unmarked) [DCD-148] | lower EC50s compared to α-GalCer | –
CCCCCCCCCCCCCC[C@@H](O)[C@@H](O)[C@H](COC1OC(CO)C(O)C(O)C1O)NC(=O)CCCCCCCCCCCC12C3C4C5C3C1C5C42 (some centres unmarked) [DCD-103] | lower EC50s compared to α-GalCer | –
CCCCCCCCCCCCCC[C@@H](O)[C@@H](O)[C@H](COC1OC(CO)C(O)C(O)C1O)NC(=O)CCCCCCCCOCC1CCOCC1 (some centres unmarked) [DCD-141] | lower EC50s compared to α-GalCer | –
CCCCCCCCCCCCCC[C@@H](O)[C@@H](O)[C@H](COC1OC(CO)C(O)C(O)C1O)NC(=O)CCCCCCCCCCC1COC1 (some centres unmarked) [DCD-118] | lower EC50s compared to α-GalCer | –
CCCCCCCCCCCCCC[C@@H](O)[C@@H](O)[C@H](COC1OC(CO)C(O)C(O)C1O)NC(=O)CCCCCCCCCCC12C3C4C5C3C1C5C42 (some centres unmarked) [DCD-114] | lower EC50s compared to α-GalCer | –
CCCCCCCCCCCCCC[C@@H](O)[C@@H](O)[C@H](COC1OC(CO)C(O)C(O)C1O)NC(=O)CCCCCOCCCCC1CCOCC1 (some centres unmarked) [DCD-144] | lower EC50s compared to α-GalCer | –
CCCCCCCCCCCCCC[C@@H](O)[C@@H](O)[C@H](COC1OC(CO)C(O)C(O)C1O)NC(=O)CCCCCCCCCCS(=O)(=O)C(C)C (some centres unmarked) [DCD-137] | lower EC50s compared to α-GalCer | –
CCCCCCCCCCCCCCCCCC[Si](C)(C)CCCCCCC(=O)N[C@@H](COC1OC(CO)C(O)C(O)C1O)[C@H](O)[C@H](O)CCCCCCCCCCCCCC (some centres unmarked) [DCD-152] | – | average serum IFNγ compared to α-GalCer (serum IFNγ): higher than the average serum IFNγ of C57BL/6J mice treated with α-GalCer
